From patent US10059687B2, “Histone demethylase inhibitors” (CELGENE QUANTICEL RESEARCH, INC., priority 2015, dated 2018) come the findings set out here.

One experiment has as its target JMJD2C (Homo sapiens (Human), UniProt Q9H3R0). Kind of experiment: In vitro enzyme inhibition assay for JMJD2C activity (TR-FRET). It counts as biochemical. The conditions noted are these: Table 5; one class given per A and B pair. As to the method: This assay determines the ability of a test compound to inhibit JMJD2C demethylase activity. Baculovirus expressed JMJD2C (GenBank Accession #BC143571, AA 2-372) was purchased from BPS Bioscience (Cat#50105).
The ability of test compounds to inhibit the activity of JMJD2C was determined in 384-well plate format under the following reaction conditions: 0.3 nM JMJD2C, 300 nM H3K9me3-biotin labeled peptide (Anaspec cat #64360), 2 μM alpha-ketoglutaric acid in assay buffer of 50 mM HEPES, pH7.3, 0.005% Brij35, 0.5 mM TCEP, 0.2 mg/ml BSA, 50 μM sodium L-ascorbate, and 2 μM ammonium iron(II) sulfate. Reaction product was determined quantitatively by TR-FRET after the addition of detection reagent Phycolink Streptavidin-allophycocyanin (Prozyme) and Europium-anti-di-methylated histone H3 lysine 9 (H3K9me2) antibody (PerkinElmer) in the presence of 5 mM EDTA in LANCE detection buffer (PerkinElmer) at a final concentration of 50 nM and 1 nM, respectively.
(§1) The assay reaction was initiated by the following: 2 μl of the mixture of 900 nM H3K9me3-biotin labeled peptide and 6 μM alpha-ketoglutaric acid with 2 μl of 11-point serial diluted inhibitor in 3% DMSO were added to each well of the plate, followed by the addition of 2 μl of 0.9 nM JMJD2C to initiate the reaction. The reaction mixture was incubated at RT for 30 min, and terminated by the addition of 6 μl of 5 mM EDTA in LANCE detection buffer containing 100 nM Phycolink Streptavidin-allophycocyanin and 2 nM Europium-anti-H3K9me2 antibody. Plates were read by EnVisionMultilabel Reader in TR-FRET mode (excitation at 320 nm, emission at 615 nm and 665 nm) after 1 hr incubation at RT. A ratio was calculated (665/615) for each well and fitted to determine inhibition constant (IC50).

Another experiment deals with JMJD3 (Homo sapiens, UniProt O15054). Put plainly: In vitro enzyme inhibition assay for JMJD3 activity (TR-FRET). As to conditions: Table 5; one class given per A and B pair. In kind it is biochemical. As to the method: This assay determines the ability of a test compound to inhibit JMJD3 demethylase activity. Baculovirus expressed JMJD3 (GenBank Accession #NM-001080424, AA1043-end) was purchased from BPS Bioscience (Cat#50115).
The enzymatic assay of JMJD3 activity is based upon Time Resolved-Fluorescence Resonance Energy Transfer (TR-FRET) detection. The ability of test compounds to inhibit the activity of JMJD3 was determined in 384-well plate format under the following reaction conditions: 5 nM JMJD3, 250 nM H3K27me3-biotin labeled peptide (Anaspec cat #64367), 0.4 to 2 μM α-ketoglutaric acid in assay buffer of 50 mM HEPES, pH7.3, 0.005% Brij35, 0.5 mM TCEP, 0.2 mg/ml BSA, 50 μM sodium L-ascorbate, and 5 μM ammonium iron(II) sulfate. Reaction product was determined quantitatively by TR-FRET after the addition of detection reagent Phycolink Streptavidin-allophycocyanin (Prozyme) and Europium-anti-H3K27me2 antibody (PerkinElmer) in the presence of 5 mM EDTA in LANCE detection buffer (PerkinElmer) at a final concentration of 50 nM and 1 nM, respectively.
The assay reaction was initiated by the following: […] of the mixture of 750 nM H3K27me3-biotin labeled peptide and 1.2 to 6 μM alpha-ketoglutaric acid with 2 μL of 11-point serial diluted inhibitor in 3% DMSO were added to each well of plate, followed by the addition of 2 μl of 15 nM JMJD3 to initiate the reaction. The reaction mixture was incubated at RT for 30 min, and terminated by the addition of 6 μL of 5 mM EDTA in LANCE detection buffer containing 100 nM Phycolink Streptavidin-allophycocyanin and 2 nM Europium-anti-H3K27me2 antibody. Plates were read by EnVisionMultilabel Reader in TR-FRET mode (excitation at 320 nm, emission at 615 nm and 665 nm) after 1 hr incubation at RT. A ratio from the readout of 665/615 was calculated for each well and fitted to determine inhibition constant (IC50).

Another experiment has as its target Jarid1B (Homo sapiens (Human), UniProt Q9UGL1). Kind of experiment: In vitro enzyme inhibition assay for Jarid1B activity (TR-FRET). In kind it is biochemical. As to conditions: Table 5; one class given per A and B pair. As to the method: The ability of test compounds to inhibit the activity of Jarid1B was determined in 384-well plate format under the following reaction conditions: 0.8 nM Jarid1B, 300 nM H3K4me3-biotin labeled peptide (Anaspec cat #64357), 2 μM alpha-ketoglutaric acid in assay buffer of 50 mM HEPES, pH7.3, 0.005% Brij35, 0.5 mM TCEP, 0.2 mg/ml BSA, 50 μM sodium L-ascorbate, and 2 μM ammonium iron(II) sulfate. Reaction product was determined quantitatively by TR-FRET after the addition of detection reagent Phycolink Streptavidin-allophycocyanin (Prozyme) and Europium-anti-H3K4me or -H3K4me2 antibody (PerkinElmer) in the presence of 5 mM EDTA in LANCE detection buffer (PerkinElmer) at a final concentration of 25 nM and 1 nM, respectively.
as §1, with “nM H3K4me3-biotin” for “nM H3K9me3-biotin”, “DMSO was” for “DMSO were”, “of 2.4” for “of 0.9”, “nM Jarid1B” for “nM JMJD2C”, “containing 50” for “containing 100”, “nM Europium-anti-H3K4me/H3K4me2” for “nM Europium-anti-H3K9me2”
A general note: Time-resolved FRET reads energy transfer from a long-lived donor to a nearby acceptor.

The test system of experiment [1] is esophageal squamous cell carcinoma KYSE-150 cells. Put plainly: Cellular IC50 in KYSE-150 cells. It counts as cell-based. As to conditions: Homo sapiens, one class given per A and B pair. An excerpt:
Table 7 provides IC50 values of various compounds disclosed herein, tested in cellular human esophageal squamous cell carcinoma KYSE-150 cells: […]

JMJD2C, sequence (Q9H3R0 2-372): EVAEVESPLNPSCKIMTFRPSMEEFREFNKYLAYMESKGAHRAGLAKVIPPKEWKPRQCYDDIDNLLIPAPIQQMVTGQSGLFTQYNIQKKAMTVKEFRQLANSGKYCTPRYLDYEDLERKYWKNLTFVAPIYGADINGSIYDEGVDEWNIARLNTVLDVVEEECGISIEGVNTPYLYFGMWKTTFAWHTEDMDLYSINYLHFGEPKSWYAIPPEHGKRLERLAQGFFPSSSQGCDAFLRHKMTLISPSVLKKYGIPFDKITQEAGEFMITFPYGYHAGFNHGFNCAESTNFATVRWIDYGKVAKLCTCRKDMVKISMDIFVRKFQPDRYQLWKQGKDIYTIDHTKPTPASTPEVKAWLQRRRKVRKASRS
Jarid1B, sequence (Q9UGL1 whole entry, species assumed): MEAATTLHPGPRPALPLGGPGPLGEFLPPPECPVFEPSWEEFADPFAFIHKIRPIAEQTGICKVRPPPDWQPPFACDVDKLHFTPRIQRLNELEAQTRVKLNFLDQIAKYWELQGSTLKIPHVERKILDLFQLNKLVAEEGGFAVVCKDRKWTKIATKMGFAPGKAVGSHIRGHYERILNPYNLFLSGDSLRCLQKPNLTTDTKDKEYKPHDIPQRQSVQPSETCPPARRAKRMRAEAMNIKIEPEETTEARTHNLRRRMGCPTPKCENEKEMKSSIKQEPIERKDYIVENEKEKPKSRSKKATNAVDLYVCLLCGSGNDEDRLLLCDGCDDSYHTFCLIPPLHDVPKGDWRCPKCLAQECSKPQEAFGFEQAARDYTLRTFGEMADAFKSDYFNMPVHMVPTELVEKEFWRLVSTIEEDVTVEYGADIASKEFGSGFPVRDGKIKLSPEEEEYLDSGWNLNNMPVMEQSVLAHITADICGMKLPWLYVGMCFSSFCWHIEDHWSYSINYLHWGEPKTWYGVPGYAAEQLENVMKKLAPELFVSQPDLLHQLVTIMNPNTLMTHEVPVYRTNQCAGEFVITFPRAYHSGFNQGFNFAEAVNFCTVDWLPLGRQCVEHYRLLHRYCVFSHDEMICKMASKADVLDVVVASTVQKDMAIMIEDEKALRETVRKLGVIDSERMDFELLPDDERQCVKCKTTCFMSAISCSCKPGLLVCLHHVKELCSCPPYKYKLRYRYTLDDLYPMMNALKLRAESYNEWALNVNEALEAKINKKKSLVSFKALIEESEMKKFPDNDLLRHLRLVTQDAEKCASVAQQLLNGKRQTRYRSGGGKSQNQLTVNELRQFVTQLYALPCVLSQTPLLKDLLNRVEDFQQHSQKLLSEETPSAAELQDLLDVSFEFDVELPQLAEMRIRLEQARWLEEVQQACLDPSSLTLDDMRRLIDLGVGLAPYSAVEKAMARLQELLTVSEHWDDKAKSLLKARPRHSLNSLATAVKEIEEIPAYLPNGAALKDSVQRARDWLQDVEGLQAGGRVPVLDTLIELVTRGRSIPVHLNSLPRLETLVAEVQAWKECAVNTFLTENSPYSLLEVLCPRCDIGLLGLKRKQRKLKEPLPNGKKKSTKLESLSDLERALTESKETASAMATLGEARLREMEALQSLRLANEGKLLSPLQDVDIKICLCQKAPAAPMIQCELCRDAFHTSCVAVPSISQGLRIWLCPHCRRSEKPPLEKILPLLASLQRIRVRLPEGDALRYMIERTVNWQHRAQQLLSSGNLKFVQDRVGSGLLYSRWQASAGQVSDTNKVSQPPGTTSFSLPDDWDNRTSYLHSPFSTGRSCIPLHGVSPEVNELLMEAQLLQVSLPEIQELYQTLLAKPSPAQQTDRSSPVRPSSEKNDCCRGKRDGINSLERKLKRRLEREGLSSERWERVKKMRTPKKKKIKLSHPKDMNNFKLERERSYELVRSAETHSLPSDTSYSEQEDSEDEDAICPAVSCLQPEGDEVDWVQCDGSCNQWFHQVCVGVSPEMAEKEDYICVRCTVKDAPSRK

As a reminder, the IC50 is the concentration needed to halve the response being measured. A higher IC50 goes with weaker potency in that assay. Consider `CCCc1ccc(N(C)c2ccc3c(c2)CCN(C)[C@H]3CNc2cnccc2C(=O)O)cc1` [Example 14A, (R)-3-(((2-methyl-6-(methyl (4-propylphenyl)amino)-1,2,3,4-tetrahydroisoquinolin-1-yl)methyl)amino)isonicotinic acid], for which the IC50 against JMJD2C is 1000 to 10000 nM; against JMJD3, 1000 to 10000 nM; on Jarid1B it was at most 100 nM; in experiment [1], at most 100 nM.

Consider `CCCc1ccc(N(C)c2ccc3c(c2)CCN(C)[C@@H]3CNc2cnccc2C(=O)O)cc1` [Example 14B, (S)-3-(((2-methyl-6-(methyl (4-propylphenyl)amino)-1,2,3,4-tetrahydroisoquinolin-1-yl)methyl)amino)isonicotinic acid], for which the IC50 on JMJD2C was 1000 to 10000 nM; at JMJD3 it was 1000 to 10000 nM; at Jarid1B it was at most 100 nM; in experiment [1], at most 100 nM.

For `Cc1ccc(N(C)c2ccc3c(c2)CN(C)[C@H]3CNc2cnccc2C(=O)O)cc1` [Example 18A, (R)-3-(((2-methyl-5-(methyl(p-tolyl)amino)isoindolin-1-yl)methyl)amino) isonicotinic acid], the IC50 on JMJD2C is 100 to 1000 nM; at JMJD3, 1000 to 10000 nM; against Jarid1B, at most 100 nM; in experiment [1], at most 100 nM.

`Cc1ccc(N(C)c2ccc3c(c2)CN(C)[C@@H]3CNc2cnccc2C(=O)O)cc1` [Example 18B, (S)-3-(((2-methyl-5-(methyl(p-tolyl)amino)isoindolin-1-yl)methyl)amino) isonicotinic acid]: the IC50 on JMJD2C was 100 to 1000 nM; against JMJD3, 1000 to 10000 nM; against Jarid1B, at most 100 nM; in experiment [1], at most 100 nM.

With `CCc1ccc(N(C)c2ccc3c(c2)CN(C)[C@H]3CNc2cnccc2C(=O)O)cc1` [Example 19A, (R)-3-(((5-((4-ethylphenyl)(methyl)amino)-2-methylisoindolin-1-yl)methyl)amino)isonicotinic acid], the IC50 against JMJD2C is 100 to 1000 nM; at JMJD3, 1000 to 10000 nM; at Jarid1B, at most 100 nM; in experiment [1], at most 100 nM.

Turning to `CCc1ccc(N(C)c2ccc3c(c2)CN(C)[C@@H]3CNc2cnccc2C(=O)O)cc1` [Example 19B, (S)-3-(((5-((4-ethylphenyl)(methyl)amino)-2-methylisoindolin-1-yl)methyl)amino)isonicotinic acid], the IC50 at JMJD2C was 100 to 1000 nM; against JMJD3, 1000 to 10000 nM; on Jarid1B, at most 100 nM; in experiment [1] it was at most 100 nM.

For the molecule `CCCc1ccc(N(C)c2ccc3c(c2)CN(C)[C@H]3CNc2cnccc2C(=O)O)cc1` [Example 20A, (R)-3-(((2-methyl-5-(methyl (4-propylphenyl)amino)isoindolin-1-yl)methyl)amino)isonicotinic acid], the IC50 against JMJD2C was 100 to 1000 nM; against JMJD3, 1000 to 10000 nM; against Jarid1B, at most 100 nM; in experiment [1], at most 100 nM.

`CCCc1ccc(N(C)c2ccc3c(c2)CN(C)[C@@H]3CNc2cnccc2C(=O)O)cc1` [Example 20B, (S)-3-(((2-methyl-5-(methyl (4-propylphenyl)amino)isoindolin-1-yl)methyl)amino)isonicotinic acid]: the IC50 at JMJD2C was 100 to 1000 nM; on JMJD3 it was 1000 to 10000 nM; against Jarid1B, at most 100 nM; in experiment [1] it was at most 100 nM.

In the case of `Cc1ccccc1-c1ccc2c(c1)CN(C)[C@H]2CNc1cnccc1C(=O)O` [Example 21A, (R)-3-(((2-methyl-5-(o-tolyl)isoindolin-1-yl)methyl)amino)isonicotinic acid], the IC50 is 100 to 1000 nM against JMJD2C, 1000 to 10000 nM at JMJD3, at most 100 nM on Jarid1B and at most 100 nM in experiment [1].

With `Cc1ccccc1-c1ccc2c(c1)CN(C)[C@@H]2CNc1cnccc1C(=O)O` [Example 21B, (S)-3-(((2-methyl-5-(o-tolyl)isoindolin-1-yl)methyl)amino)isonicotinic acid], the IC50 was 100 to 1000 nM against JMJD2C, 1000 to 10000 nM at JMJD3, at most 100 nM on Jarid1B and at most 100 nM in experiment [1].
